The values below come from patent US11116212B2, “Carbonyl containing compounds for controlling and repelling Cimicidae populations” (SemiosBio Technologies Inc., priority 2011, dated 2021).

Type in all cases: in vivo
The test system of assay [1] is bed bugs, Cimex lectularius. Nature of the assay: Bed bug repellency bioassay, glass tube olfactometer arena. The settings on record: for pest or weed control at 25 % strength / pest or weed control at 5 % strength: Cimex lectularius, average of 3 replicates x 3 observation periods, read-out: % Repellency (% R), Overall Average; for pest or weed control at 25 % strength: beads, 20 uL; for pest or weed control at 5 % strength: gauze, 50 uL, 5% w/v in hexane. As to the method: (§1) Per individual bioassay, 10 adult or late instar nymph bed bugs, Cimex lectularius, of mixed sex. Bed bugs sourced from wild, field populations and tested within 2 weeks of capture. Subjects were tested one time, only.
(ii) Olfactometer consisting of a glass tube. Tube ends were plugged to prevent egress of test subjects. Test substrates were placed at opposite ends of the tube. Tube Olfactometer includes a port in the centre for introduction of test subjects. Dimensions of the tube were 15.2 mm in diameter by 304.8 mm long.
Compounds were either purchased from commercial sources or synthesized using conventional synthetic organic chemistry techniques (see, for example, Examples 5 to 7). Some compounds (014, 058 and 080) were tested in duplicate (one version from commercial sources and one synthesized) and the best performance is reported in the Tables below. Of the tested compounds reported in the Tables below, the following compounds were synthesized: 006, 010, 017, 018, 040, 041 to 043, 045, 046, 048, 049, 058, 067 to 075, 079, 080 to 082, 089 and 090.
Test compounds consisted of a control and treatment. The treatment consisted of a test compound mixed as a percentage w/w in a suitable solvent. The test compound solvent itself was used as a control. Solvents used were hexane, hexane:methanol, or dichloromethane:methanol.
(i) Gauze cut to a standard size and folded upon itself to provide harbourage for test subjects.
(iii) Absorbent polymer “aroma” beads that were given sufficient time to fully absorb test compounds and control solvents.
In the case of gauze and filter paper substrates, control solvents and test mixtures of known concentrations and volumes were dispensed directly onto substrates using a pipette. For polymer beads, beads were mixed w/w with solvent or test compound in a small glass jar. The jars were occasionally agitated to facilitate soaking of the beads.
(§2) Immediately after the substrates were infused with test compounds and control solvents, test subjects were introduced to the centre of the selected observation arena. […] Only subjects that were in close contact with the treatment or control substrates were recorded. Subjects elsewhere in the arena were not included in repellency calculations. Percentage repellency was calculated based on a modification of Abbott's formula to account for negative repellency (attraction). Specifically: IF(C>=T,(C−T)/C*100,(T−C)/T*−100)
(§3) where C is number of test subjects in contact with control substrate and T is number of test subjects in contact with treatment substrate.
All average repellency results reported in the table are based on 3 replicates for each reported trial, with each trial involving at least 3 observation periods. The observation periods were short-term (30 min), medium-term (1-2 hours), and long-term (24-48 hours). The “overall average” reported in the table represents the average for 3 replicates for 3 observation periods. […]
To determine whether compounds could be combined in the repellent compositions, compounds 14 and 35 were each tested at a concentration of 5% (w/w), and as a combination comprising each compound at a concentration of 2.5% (w/w). The formulations were tested as described in Example 1 using the olfactometer configuration.

The test system of assay [2] is bed bugs, Cimex lectularius. As to the kind of experiment: Bed bug repellency bioassay, box arena (formulations of compound 35). The protocol:
as §1
(iii) Box arenas consisted of covered plastic “Rubbermaid” box where the cover was modified to fit a mesh screen to allow movement of air between the test arena interior and outside. Test substrates were placed at opposite ends of the box arena. Dimensions of the box were 304.8 mm long by 200 mm wide by 80 mm in depth.
as §2, §3
Compound 35 was formulated as a spray formulation in which the compound was dissolved in isopropyl alcohol (IPA) at concentrations of 1%, 2.5% and 5%.
In addition, compound 35 was tested on plastic slow-release beads. The beads were cured with either: 1) 20% (w/w) neat compound 35, or 2) 20% (w/w) of a 1:1 mixture of compound 35 and wintergreen oil (methyl salicylate).
The formulations were tested as described in Example 1 using the box configuration.

Assay [3] relates to bed bugs, Cimex lectularius. Nature of the assay: Bed bug repellency bioassay, Petri dish arena. The settings on record: filter paper, 100 uL, 1% v/v in hexane, average of 3 replicates x 3 observation periods.
Excerpt: (i) Petri Dish arenas consisted of a standard plastic, covered Petri Dish where test substrates were placed at opposite sides of the dish. Dimensions of the dish were 101.6 mm in diameter by 25.4 mm in depth.
(ii) Filter paper of standard size and folded as per (i).
In the case of gauze and filter paper substrates, control solvents and test mixtures of known concentrations and volumes were dispensed directly onto substrates using a pipette. […]
Immediately after the substrates were infused with test compounds and control solvents, test subjects were introduced to the centre of the selected observation arena. […] Only subjects that were in close contact with the treatment or control substrates were recorded. […] Percentage repellency was calculated based on a modification of Abbott's formula to account for negative repellency (attraction). […]

Like-named read-outs stand apart in the source and are kept apart here. Marks after values point to notes of the source that are not given here.

`CCC(=O)OCc1ccco1` [Compound 035, Furfuryl propionate]: the pest or weed control at 25 % strength in assay [1] (25% w/w in hexane) was > 80%. Further, the “% R (Overall Average)” value in assay [1] (Example 2, single compound at 5% (w/w)) worked out at 95%; in assay [2] (IPA spray, 1% (w/w) compound 35 in isopropyl alcohol), 92%; in assay [2] (IPA spray, 2.5% (w/w) compound 35 in isopropyl alcohol), 94%; in assay [2] (IPA spray, 5% (w/w) compound 35 in isopropyl alcohol) it was 100%; in assay [2] (plastic slow-release beads cured with 20% (w/w) neat compound 35), 100%; in assay [2] (plastic slow-release beads, 10% compound 35 + 10% wintergreen oil (methyl salicylate)), 100%. For the same molecule, the “repellency of formulations (in words)” value in assay [2] (both formulation formats (IPA spray, plastic beads), all concentrations tested) is given as “excellent repellency”.
Regarding `CCOC(=O)CCC(=O)O` [Compound 055, Mono-ethyl succinate], the “% Repellency (% R), Overall Average” value in assay [3] is 73%.
For the molecule `CCCC(=O)c1ccco1` [Compound 086, 2-butyrylfuran], the pest or weed control at 25 % strength in assay [1] (25% w/w in hexane:methanol (1:1)) is > 80%.
Regarding `CCC(C)C(=O)c1ccco1` (stereo not drawn) [Compound 089, 1-furan-2-yl-2-methylbutan-1-one], the pest or weed control at 5 % strength in assay [1] was > 80%.
Turning to `CCCCC(=O)c1ccco1` [Compound 090, 1-Pentanone, 1-(2-furanyl)-], the pest or weed control at 5 % strength in assay [1] is > 80%.
